Data as given in patent US10597388B2, “Pyridazinone herbicides” (FMC CORPORATION, priority 2014, dated 2020).

What was measured:
Experiment in all cases: Test C greenhouse herbicide test, pre- and postemergence
Type in all cases: in vivo
[1] = system: lambsquarters (Chenopodium album)
Summary of the method: (§1)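 Pre- and postemergence greenhouse screen; values are visual control ratings, 0 meaning no effect and 100 complete kill, assigned relative to untreated plants after 13 to 15 d.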

[2] = system: foxtail, giant (giant foxtail, Setaria faberii)
Summary of the method: as §1

[3] = system: crabgrass, large (large crabgrass, Digitaria sanguinalis)
Summary of the method: as §1

[4] = system: ryegrass, Italian (Italian ryegrass, Lolium multiflorum)
Summary of the method: as §1

[5] = system: galium (catchweed bedstraw, Galium aparine)
Summary of the method: as §1

[6] = system: nutsedge, yellow (yellow nutsedge, Cyperus esculentus)
Summary of the method: as §1

[7] = system: ragweed (common ragweed, Ambrosia elatior)
Summary of the method: as §1

[8] = system: corn (Zea mays)
Summary of the method: as §1

[9] = system: velvetleaf (Abutilon theophrasti)
Summary of the method: as §1

[10] = system: barnyardgrass (Echinochloa crus-galli)
Summary of the method: as §1

[11] = system: soybean (Glycine max)
Summary of the method: as §1

[12] = system: morningglory (Ipomoea coccinea)
Summary of the method: as §1

[13] = system: oilseed rape (Brassica napus)
Summary of the method: as §1

[14] = system: blackgrass (Alopecurus myosuroides)
Summary of the method: as §1

[15] = system: waterhemp (common waterhemp, Amaranthus rudis)
Summary of the method: as §1

[16] = Postemergence, 31 g ai/ha, 0 to 100 scale (0 no effect, 100 complete control)
[17] = Postemergence, 125 g ai/ha, scale 0 to 100, 0 is no effect, 100 is complete control
[18] = Postemergence, 250 g ai/ha, scale 0 to 100, 0 no effect, 100 complete control, 13 to 15 d
[19] = Preemergence, 31 g ai/ha, scale 0 to 100, 0 is no effect, 100 is complete control
[20] = Preemergence, 62 g ai/ha, scale 0 to 100, 0 is no effect, 100 is complete control
[21] = Preemergence, 125 g ai/ha, scale 0 to 100, 0 is no effect, 100 is complete control
[22] = Preemergence, 250 g ai/ha, scale 0 to 100, 0 no effect, 100 complete control
[23] = postemergence, 62 g ai/ha, scale 0 to 100, 0 no effect, 100 complete control

CCc1sc2c(C)cc(C)cc2c1-c1c(O)c(C)nn(C)c1=O [Compound 57]
Lambsquarters plant response rating [1, 16]: 70
Plant response rating, Lambsquarters [1, 17]: 95
Plant response rating, Lambsquarters [1, 18]: 90
Plant response rating, Lambsquarters [1, 19]: 100
Plant response rating, Lambsquarters [1, 20]: 100
Plant response rating, Lambsquarters [1, 21]: 100
Lambsquarters plant response rating [1, 22]: 100
Lambsquarters plant response rating [1, 23]: 70
Foxtail, Giant plant response rating [2, 16]: 70
Plant response rating, Foxtail, Giant [2, 17]: 85
Plant response rating, Foxtail, Giant [2, 18]: 95
Plant response rating, Foxtail, Giant [2, 19]: 45
Plant response rating, Foxtail, Giant [2, 20]: 80
Plant response rating, Foxtail, Giant [2, 21]: 90
Foxtail, Giant plant response rating [2, 22]: 100
Foxtail, Giant plant response rating [2, 23]: 70
Crabgrass, Large plant response rating [3, 16]: 10
Plant response rating, Crabgrass, Large [3, 17]: 30
Plant response rating, Crabgrass, Large [3, 18]: 35
Plant response rating, Crabgrass, Large [3, 19]: 0
Plant response rating, Crabgrass, Large [3, 20]: 35
Plant response rating, Crabgrass, Large [3, 21]: 98
Crabgrass, Large plant response rating [3, 22]: 100
Crabgrass, Large plant response rating [3, 23]: 20
Ryegrass, Italian plant response rating [4, 16]: 25
Plant response rating, Ryegrass, Italian [4, 17]: 50
Plant response rating, Ryegrass, Italian [4, 18]: 60
Plant response rating, Ryegrass, Italian [4, 19]: 45
Plant response rating, Ryegrass, Italian [4, 20]: 65
Plant response rating, Ryegrass, Italian [4, 21]: 70
Ryegrass, Italian plant response rating [4, 22]: 85
Ryegrass, Italian plant response rating [4, 23]: 30
Galium plant response rating [5, 16]: 95
Plant response rating, Galium [5, 17]: 95
Plant response rating, Galium [5, 18]: 100
Plant response rating, Galium [5, 19]: 80
Plant response rating, Galium [5, 20]: 90
Plant response rating, Galium [5, 21]: 95
Galium plant response rating [5, 22]: 98
Galium plant response rating [5, 23]: 95
Nutsedge, Yellow plant response rating [6, 16]: 90
Plant response rating, Nutsedge, Yellow [6, 17]: 90
Plant response rating, Nutsedge, Yellow [6, 18]: 90
Plant response rating, Nutsedge, Yellow [6, 19]: 10
Plant response rating, Nutsedge, Yellow [6, 20]: 30
Plant response rating, Nutsedge, Yellow [6, 21]: 90
Nutsedge, Yellow plant response rating [6, 22]: 95
Nutsedge, Yellow plant response rating [6, 23]: 90
Ragweed plant response rating [7, 16]: 60
Plant response rating, Ragweed [7, 17]: 85
Plant response rating, Ragweed [7, 18]: 95
Plant response rating, Ragweed [7, 19]: 70
Plant response rating, Ragweed [7, 20]: 95
Plant response rating, Ragweed [7, 21]: 100
Ragweed plant response rating [7, 22]: 100
Ragweed plant response rating [7, 23]: 90
Corn plant response rating [8, 16]: 0
Plant response rating, Corn [8, 17]: 5
Plant response rating, Corn [8, 18]: 10
Plant response rating, Corn [8, 19]: 0
Plant response rating, Corn [8, 21]: 0
Corn plant response rating [8, 22]: 35
Corn plant response rating [8, 23]: 5
Velvetleaf plant response rating [9, 16]: 90
Plant response rating, Velvetleaf [9, 17]: 100
Plant response rating, Velvetleaf [9, 18]: 100
Plant response rating, Velvetleaf [9, 19]: 50
Plant response rating, Velvetleaf [9, 20]: 80
Plant response rating, Velvetleaf [9, 21]: 95
Velvetleaf plant response rating [9, 22]: 100
Velvetleaf plant response rating [9, 23]: 95
Barnyardgrass plant response rating [10, 16]: 90
Plant response rating, Barnyardgrass [10, 17]: 95
Plant response rating, Barnyardgrass [10, 18]: 98
Plant response rating, Barnyardgrass [10, 19]: 5
Plant response rating, Barnyardgrass [10, 20]: 90
Plant response rating, Barnyardgrass [10, 21]: 100
Barnyardgrass plant response rating [10, 22]: 100
Barnyardgrass plant response rating [10, 23]: 95
Soybean plant response rating [11, 16]: 0
Plant response rating, Soybean [11, 17]: 0
Plant response rating, Soybean [11, 18]: 5
Plant response rating, Soybean [11, 19]: 0
Plant response rating, Soybean [11, 20]: 0
Plant response rating, Soybean [11, 21]: 0
Soybean plant response rating [11, 22]: 0
Soybean plant response rating [11, 23]: 0
Morningglory plant response rating [12, 16]: 95
Plant response rating, Morningglory [12, 17]: 100
Plant response rating, Morningglory [12, 18]: 100
Plant response rating, Morningglory [12, 19]: 100
Plant response rating, Morningglory [12, 20]: 100
Plant response rating, Morningglory [12, 21]: 100
Morningglory plant response rating [12, 22]: 100
Morningglory plant response rating [12, 23]: 100
Oilseed Rape plant response rating [13, 16]: 0
Plant response rating, Oilseed Rape [13, 17]: 0
Plant response rating, Oilseed Rape [13, 18]: 5
Plant response rating, Oilseed Rape [13, 19]: 0
Plant response rating, Oilseed Rape [13, 20]: 0
Plant response rating, Oilseed Rape [13, 21]: 30
Oilseed Rape plant response rating [13, 22]: 60
Oilseed Rape plant response rating [13, 23]: 0
Blackgrass plant response rating [14, 16]: 5
Plant response rating, Blackgrass [14, 17]: 5
Plant response rating, Blackgrass [14, 18]: 25
Plant response rating, Blackgrass [14, 19]: 30
Plant response rating, Blackgrass [14, 20]: 60
Plant response rating, Blackgrass [14, 21]: 70
Blackgrass plant response rating [14, 22]: 80
Blackgrass plant response rating [14, 23]: 5
Waterhemp plant response rating [15, 16]: 50
Plant response rating, Waterhemp [15, 17]: 85
Plant response rating, Waterhemp [15, 18]: 100
Plant response rating, Waterhemp [15, 19]: 90
Plant response rating, Waterhemp [15, 20]: 98
Plant response rating, Waterhemp [15, 21]: 100
Waterhemp plant response rating [15, 22]: 100
Waterhemp plant response rating [15, 23]: 65
